Consider 60 compounds from BindingDB's records for doi:10.7270/Q2TX3CTT (Broad Institute, 2010).

Where a name gives a salt, the structure may show the parent alone.

The target of the test is Glycogen synthase kinase-3 beta (Homo sapiens, UniProt P49841). The test can be described thus: GSK3beta kinase inhibitor potency, dose response, biochemical, luminescence, cell-free homogeneous, retest (AID 434954).
Chain of Glycogen synthase kinase-3 beta (P49841 whole entry): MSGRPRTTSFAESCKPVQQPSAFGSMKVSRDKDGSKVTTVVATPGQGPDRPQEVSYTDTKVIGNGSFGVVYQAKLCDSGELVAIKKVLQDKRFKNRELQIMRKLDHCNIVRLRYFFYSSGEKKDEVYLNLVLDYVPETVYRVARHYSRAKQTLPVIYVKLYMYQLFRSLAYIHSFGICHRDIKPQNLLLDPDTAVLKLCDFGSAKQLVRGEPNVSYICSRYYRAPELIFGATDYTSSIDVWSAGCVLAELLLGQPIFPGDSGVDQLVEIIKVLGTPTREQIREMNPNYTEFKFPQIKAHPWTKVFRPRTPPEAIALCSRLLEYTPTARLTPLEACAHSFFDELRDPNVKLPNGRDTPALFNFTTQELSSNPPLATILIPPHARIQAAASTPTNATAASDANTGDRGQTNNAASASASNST
By EC50 is commonly meant the concentration at which the effect is half-maximal. A high value points to weaker potency. `COc1ccc(-c2nn(-c3ccccc3)cc2C=NNS(=O)(=O)c2ccccc2)cc1` displayed a concentration for a half-maximal effect (EC50) of more than 300 µM. Compound `CCN(CC)CCCNc1nc(N)c([N+](=O)[O-])c(NCCO)n1` [SMR000436737] yielded an EC50 of more than 300 µM.

Consider `COc1ccc(-c2cc(-c3ccco3)nc(O)c2C#N)cc1` [6-(furan-2-yl)-4-(4-methoxyphenyl)-2-oxidanylidene-1H-pyridine-3-carbonitrile], for which the 50% effective concentration (EC50) is more than 300 µM. As for `CC(=O)Nc1c(N)c2ccccc2oc1=O` [N-(4-amino-2-oxo-1-benzopyran-3-yl)acetamide], the EC50 was more than 300 µM. For `COc1ccc(-c2cc(=O)oc3c(C)c(O)ccc23)cc1` [7-hydroxy-4-(4-methoxyphenyl)-8-methylchromen-2-one] the value was more than 300 µM. In turn, `CCOC(=O)c1nnn(-c2nonc2N)c1CN1CCc2ccccc2C1` [ethyl 1-(4-amino-1,2,5-oxadiazol-3-yl)-5-(3,4-dihydro-1H-isoquinolin-2-ylmethyl)triazole-4-carboxylate] displayed a concentration for a half-maximal effect (EC50) of 71.5 µM. On to `CC(=O)Nc1ccc(Cc2nc3c([nH]2)c(=O)n(C)c(=O)n3C)cc1` [SMR000528148], for which the EC50 is more than 300 µM.

Regarding `COc1cc(/C=N/NC(=O)c2cccc(Cl)c2)ccc1Oc1ccc([N+](=O)[O-])cn1` [MLS000779574], the half-maximal effective concentration (EC50) was more than 300 µM. The result for `CCOC(=O)c1cnc2ccc(OCC)cc2c1N1CCN(C)CC1` [MLS000047802] reads 49.5 µM; that for `CC1CN(C(=O)CCc2cc(C(C)(C)C)c(O)c(C(C)(C)C)c2)CC(C)O1` (stereo not given) [3-(3,5-ditert-butyl-4-hydroxyphenyl)-1-(2,6-dimethyl-4-morpholinyl)-1-propanone], more than 300 µM; that for `COc1ccc(-c2nn(-c3ccccc3)cc2N)cc1` [3-(4-methoxyphenyl)-1-phenylpyrazol-4-amine], more than 300 µM. `Cc1nc(Nc2ccccc2)sc1C(=O)c1ccc(F)cc1` [SMR000567585] gave a 50% effective concentration (EC50) of more than 300 µM. In the case of `Nc1nc(Nc2cccc(F)c2)nc(N2CCOCC2)c1[N+](=O)[O-]` [2-N-(3-fluorophenyl)-6-morpholin-4-yl-5-nitropyrimidine-2,4-diamine], the 50% effective concentration (EC50) is more than 300 µM. Take `CC(CC(=O)Nc1cc(C)ccn1)=NNC(=O)C(=O)NC(C)C` [N'-[[4-[(4-methylpyridin-2-yl)amino]-4-oxidanylidene-butan-2-ylidene]amino]-N-propan-2-yl-ethanediamide]: the concentration for a half-maximal effect (EC50) is more than 300 µM. The result for `CSc1nc(NCc2ccccc2)c2c3c(sc2n1)CN(C)CC3` reads 23.3 µM; that for `S=c1[nH]c(-c2ccccc2)cn1N=Cc1ccncc1`, 140 µM. The result for `CCCN1CCN(CCCNC(=O)c2ccc3c(c2)NC(=O)c2ccccc2S3)CC1` [MLS001110989] reads more than 300 µM; that for `O=C1CN(C(=O)c2ccco2)c2ccccc2N1` [4-(Furan-2-carbonyl)-3,4-dihydro-1H-quinoxalin-2-one], more than 300 µM. On to `O=C(CCS(=O)(=O)c1ccccc1)Nc1ncc([N+](=O)[O-])s1` [SMR000605858], for which the EC50 is more than 300 µM.

On to `CCc1nc2oc3cc(OC)ccc3c(=O)c2c(=O)n1Cc1ccccc1` [2-ethyl-8-methoxy-3-(phenylmethyl)chromeno[2,3-d]pyrimidine-4,5-dione], for which the EC50 came to 4.2 µM. The result for `COc1cc2c(cc1O)C[C@H]1NCCc3cc4c(c-2c31)OCO4` [SMR000156298] reads 16.3 µM. For `COCc1c(C(=O)Nc2ccc(Cl)cc2F)oc2ccccc12` [N-(4-chloro-2-fluorophenyl)-3-(methoxymethyl)-2-benzofurancarboxamide] the value was more than 300 µM; for `COc1ccc(Nc2ccccc2C(=O)O)cc1` [SMR000370544], more than 300 µM; for `COc1ccc(Nc2nc(-c3ccncc3)nc3ccccc23)cc1` [N-(4-methoxyphenyl)-2-pyridin-4-ylquinazolin-4-amine], more than 300 µM.

`CCCn1nc(NC(=O)c2cccs2)c2cc3cc(OC)ccc3nc21` [N-(6-methoxy-1-propyl-3-pyrazolo[3,4-b]quinolinyl)-2-thiophenecarboxamide] had an EC50 of 44.5 µM. The result for `CC(CC(=O)N1CCN(c2cccc(Cl)c2)CC1)S(=O)(=O)c1ccc2c(c1)NC(=O)CO2` (stereo not given) [6-[4-[4-(3-chlorophenyl)piperazin-1-yl]-4-oxobutan-2-yl]sulfonyl-4H-1,4-benzoxazin-3-one] reads more than 300 µM; that for `CC(=O)c1ccc(NC(=O)NNS(=O)(=O)c2ccc([N+](=O)[O-])cc2)cc1`, more than 300 µM; that for `COc1ccc(-n2c(=O)c3c4c(sc3n3c(S)nnc23)CCCC4)cc1` [1-mercapto-4-(4-methoxyphenyl)-6,7,8,9-tetrahydro[1]benzothieno[3,2-e][1,2,4]triazolo[4,3-a]pyrimidin-5(4H)-one], more than 300 µM. For `CC(CC(=O)Nc1ccc(F)c([N+](=O)[O-])c1)c1ccccc1` (stereo not given) the value was more than 300 µM; for `CCCNCC1COc2ccccc2O1` (stereo not given) [2,3-dihydro-1,4-benzodioxin-3-ylmethyl(propyl)amine;hydrochloride], more than 300 µM; for `O=C1Nc2cc(C(=O)NCCCN3CCOCC3)ccc2S/C1=C/c1ccccc1F` [(2E)-2-[(2-fluorophenyl)methylidene]-N-(3-morpholin-4-ylpropyl)-3-oxo-4H-1,4-benzothiazine-6-carboxamide], 18.2 µM. On to `COc1ccc(S(=O)(=O)Nc2c(C(=O)O)[nH]c3ccc(OC)cc23)c(OC)c1` [SMR000650153], for which the response was half-maximal at 1.15 µM (EC50).

`CC1CCCC(NC(=O)C2CCN(C(=O)Nc3ccccc3)CC2)C1C` (stereo not given) [N4-(2,3-dimethylcyclohexyl)-N1-phenyl-piperidine-1,4-dicarboxamide] registered a 50% effective concentration (EC50) of more than 300 µM. For `CNc1nc(N)c([N+](=O)[O-])c(Nc2cccc(Cl)c2)n1` [SMR000434546] the value was 11.7 µM. For `COc1ccc(Nc2nc(NCc3ccco3)nc(N)c2[N+](=O)[O-])cc1` [2-N-(furan-2-ylmethyl)-4-N-(4-methoxyphenyl)-5-nitropyrimidine-2,4,6-triamine] the value was more than 300 µM; for `COc1ccc(Nc2nc(N)c(C(=O)c3ccc(F)cc3)s2)cc1` [{4-amino-2-[(4-methoxyphenyl)amino]-1,3-thiazol-5-yl}(4-fluorophenyl)methanone], 0.662 µM. For `CCOC(=O)C1C(C)=Nc2ncnn2C1c1cccnc1` (stereo not given) the value was more than 300 µM; for `CN1CCc2c(sc(NC(=O)Cc3ccc(F)cc3)c2C(N)=O)C1` [SMR000641824], more than 300 µM; for `COc1cccc(/C=C2/Sc3ccc(C(=O)NCCN4CCCCCC4)cc3NC2=O)c1` [MLS001030753], 94.6 µM. Take `Cc1nc(Nc2ccccc2)sc1C(=O)c1ccccc1` [(2-anilino-4-methyl-1,3-thiazol-5-yl)(phenyl)methanone]: a half-maximal effect (EC50) was put at 19.8 µM. For the compound `COc1ccc(C(C)N2CC34C=CC(O3)C(C(=O)O)C4C2=O)cc1` (stereo not given) [3-[1-(4-Methoxy-phenyl)-ethyl]-4-oxo-10-oxa-3-aza-tricyclo[5.2.1.0*1,5*]dec-8-ene-6-carboxylic acid], the concentration giving a half-maximal response (EC50) is more than 300 µM.

`COc1ccc(C(=O)c2coc3ccc(O)c(CN4CCCCC4)c23)cc1` [[5-hydroxy-4-(piperidin-1-ylmethyl)-1-benzofuran-3-yl]-(4-methoxyphenyl)methanone] showed a concentration for a half-maximal effect (EC50) of more than 300 µM. The result for `O=C(Nc1cccc2c1C(=O)NC2=O)c1cccc(-n2c(O)ccc2O)c1` reads more than 300 µM; that for `COc1cc2c(O)c3c(c(-c4ccc5c(c4)OCO5)c2cc1OC)C(=O)OC3` [9-(1,3-benzodioxol-5-yl)-4-hydroxy-6,7-dimethoxy-3H-benzo[f][2]benzofuran-1-one], 4.42 µM.

The compound `COC(=O)c1sccc1NC(=O)c1cccc(OC)c1` [methyl 3-[(3-methoxyphenyl)carbonylamino]thiophene-2-carboxylate] came in with a concentration giving a half-maximal response (EC50) of more than 300 µM. For `COc1cccc(C(=O)CC(C#N)c2ccc(F)cc2)c1` (stereo not given) [MLS001165246] the value was more than 300 µM; for `Cc1ccc(NC(=O)c2ccc(C)c(S(=O)(=O)N3CCCCC3)c2)nc1` [MLS001078236], more than 300 µM. `CSc1nc2n(n1)C(c1cccs1)C1C(=O)CCCC1=N2` (stereo not given) [SMR000295648] registered an EC50 of more than 300 µM.

As to `Cc1ccc(-n2c(C)c([N+](=O)[O-])c3ccc(O)cc32)cc1` [2-methyl-1-(4-methylphenyl)-3-nitro-indol-6-ol], the EC50 is more than 300 µM. The result for `CC(=O)C(Sc1ccc2nnc(-c3ccc(F)cc3)n2n1)C(C)=O` [SMR000016797] reads more than 300 µM; that for `O=C(NC(=S)Nc1cccc2c(O)cccc12)c1ccco1` [N-[(5-hydroxynaphthalen-1-yl)carbamothioyl]furan-2-carboxamide], 83.9 µM. The compound `O=C(O)/C=C/C(=O)NCC1CCC(CNC(=O)/C=C/C(=O)O)CC1` (stereo not given) [(E)-4-[[4-[[[(E)-3-carboxy-1-oxoprop-2-enyl]amino]methyl]cyclohexyl]methylamino]-4-oxo-2-butenoic acid] returned a half-maximal effective concentration (EC50) of more than 300 µM. For the compound `Cn1ncnc2c(=O)n(C)c(=O)nc1-2`, it took 62.7 µM to reach a half-maximal effect (EC50).

Turning to `COc1cccc2c1cc1c(=O)n(CC(=O)NC3CCCCC3)nc(C)n12` [N-cyclohexyl-2-(9-methoxy-4-methyl-1-oxidanylidene-[1,2,4]triazino[4,5-a]indol-2-yl)ethanamide], the EC50 is more than 300 µM. `CCCCc1cc(=O)oc2cc(OCC(=O)N(CC)CC)ccc12` registered an EC50 of more than 300 µM. The compound `Cc1cccc(CSc2ccc3nnc(-c4cccs4)n3n2)c1` [SMR000236998] had a concentration for a half-maximal effect (EC50) of more than 300 µM. The compound `Cn1cc(S(=O)(=O)NCc2ccc(F)cc2)c(=O)n(C)c1=O` returned an EC50 of more than 300 µM. The result for `COc1ccccc1/C=C/C=C1\Oc2c(ccc(O)c2CN2CCN(CCO)CC2)C1=O` [(2Z)-7-[[4-(2-hydroxyethyl)piperazin-1-yl]methyl]-2-[(E)-3-(2-methoxyphenyl)prop-2-enylidene]-6-oxidanyl-1-benzofuran-3-one] reads more than 300 µM; that for `Nc1nonc1-n1nnc(C(=O)NN=Cc2ccccn2)c1-c1ccccc1` [1-(4-azanyl-1,2,5-oxadiazol-3-yl)-5-phenyl-N-(pyridin-2-ylmethylideneamino)-1,2,3-triazole-4-carboxamide], 65.6 µM.

In the case of `CCC(C)Nc1nc(N)c([N+](=O)[O-])c(Nc2ccccc2OC)n1` (stereo not given) [SMR000434817], a half-maximal effect (EC50) was put at 0.632 µM.
